The results in this text go back to patent US8580965B2, “Substituted sulfonamide compounds” (Gruenenthal GmbH, priority 2006, dated 2013).

Experiment [1] concerns the target T1, human B1R receptor (bradykinin 1 receptor) (Homo sapiens, UniProt P46663).
T1 construct: host or cells: CHO K1 cells (hB1R cells)
T1 sequence (P46663 1-353): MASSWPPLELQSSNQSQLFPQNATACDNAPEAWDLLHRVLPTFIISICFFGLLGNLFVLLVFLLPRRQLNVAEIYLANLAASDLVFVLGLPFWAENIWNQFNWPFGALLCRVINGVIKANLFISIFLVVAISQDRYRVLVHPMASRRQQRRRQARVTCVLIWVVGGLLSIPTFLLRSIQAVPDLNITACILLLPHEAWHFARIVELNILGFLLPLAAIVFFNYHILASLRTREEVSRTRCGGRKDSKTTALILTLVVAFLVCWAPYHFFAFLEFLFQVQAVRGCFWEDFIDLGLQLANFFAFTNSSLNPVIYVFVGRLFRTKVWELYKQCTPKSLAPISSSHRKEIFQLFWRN
Description: FLIPR Ca2+ assay (Fluo-4) on CHO K1 cells stably transfected with the human B1R gene; % activation and % inhibition at 10 μM. The format is cell-based. To be noted: CHO-K1, test substance 10 μM; CHO K1 hB1R cells; Ca2+ inflow after 0.5 nM Lys-Des-Arg9-bradykinin; read-out: B1R antagonism, human [10 μM] % inhibition. In a few lines:
(§1)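 Fluo-4 Ca2+ flux on FLIPR in stable hB1R or rB1R CHO K1 lines, two additions. Agonism: 10 µM compound versus 0.5 nM Lys-Des-Arg9-BK (human) or 100 nM Des-Arg9-BK (rat); antagonism: same agonists applied 10 min later, suppression expressed against maximum achievable inhibition.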

The target in experiment [2] is T2, B1R receptor of the rat (bradykinin 1 receptor) (Rattus norvegicus, UniProt P97583).
T2 construct: host or cells: CHO K1 cells (rB1R cells)
T2 sequence (P97583 1-337): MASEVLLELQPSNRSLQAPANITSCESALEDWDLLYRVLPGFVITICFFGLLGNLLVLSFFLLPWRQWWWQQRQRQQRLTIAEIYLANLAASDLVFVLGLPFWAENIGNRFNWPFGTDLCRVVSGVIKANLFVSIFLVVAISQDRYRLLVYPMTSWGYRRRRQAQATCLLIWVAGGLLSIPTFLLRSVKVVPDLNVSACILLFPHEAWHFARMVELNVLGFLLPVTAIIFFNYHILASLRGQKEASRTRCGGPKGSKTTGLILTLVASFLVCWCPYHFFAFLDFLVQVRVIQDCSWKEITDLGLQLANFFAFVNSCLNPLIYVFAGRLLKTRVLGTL
Description: FLIPR Ca2+ assay (Fluo-4) on CHO K1 cells stably transfected with the B1R gene of the rat; % activation and % inhibition at 10 μM. The format is cell-based. Particulars: CHO-K1, test substance 10 μM; CHO K1 rB1R cells; Ca2+ inflow after 100 nM Des-Arg9-bradykinin; read-out: B1R antagonism, rat [10 μM] % inhibition. The essentials: as §1

`COc1cc(C)c(S(=O)(=O)N2CCC(COCC(=O)N3CCC(O)(c4ccc(Cl)cc4)CC3)C2)c(C)c1` (stereo not drawn) [Example 202, 1-(4-(4-chlorophenyl)-4-hydroxypiperidin-1-yl)-2-((1-(4-methoxy-2,6-dimethylphenylsulfonyl)pyrrolidin-3-yl)methoxy)ethanone]: the inhibition (in general, the drop in the measured response relative to a control, in per cent) at 10 µM came out at 99.2% in experiment [1] and 98.5% in experiment [2].

As for `COc1ccc(S(=O)(=O)N(C)CCOCC(=O)N2CCC(O)(c3ccccn3)CC2)cc1OC` [Example 41, N-{2-[2-(4′-hydroxy-3′,4′,5′,6′-tetrahydro-2′H-[2,4′]bipyridinyl-1′-yl)-2-oxo-ethoxy]-ethyl}-3,4-dimethoxy-N-methyl-phenylsulfonamide], the figures for the inhibition at 10 µM in experiment [1] and in experiment [2] were 1.29% and -6.31%, respectively.

With `COc1ccc(S(=O)(=O)N2Cc3ccccc3CC2COCC(=O)N2CCC(O)(c3ccccn3)CC2)cc1` (stereo not drawn) [Example 50, 1-(4′-hydroxy-3′,4′,5′,6′-tetrahydro-2′H-[2,4′]bipyridinyl-1′-yl)-2-[2-(4-methoxy-phenylsulfonyl)-1,2,3,4-tetrahydro-isoquinolin-3-ylmethoxy]-ethanone], the results for the inhibition at 10 µM in experiment [1] and in experiment [2] were -9.09% and 47.5%, respectively.

Regarding `O=C(COCC1Cc2ccccc2CN1S(=O)(=O)c1ccc(Cl)cc1Cl)N1CCC(O)(c2ccccc2)CC1` (stereo not drawn) [Example 80, 2-((2-(2,4-dichlorophenylsulfonyl)-1,2,3,4-tetrahydroisoquinolin-3-yl)methoxy)-1-(4-hydroxy-4-phenylpiperidin-1-yl)ethanone], the inhibition at 10 µM in experiment [1] amounted to 62.3%; in experiment [2], 82.5%.

Regarding `O=C(COCC1CCCCN1S(=O)(=O)c1ccc(C(F)(F)F)cc1)N1CCC(O)(c2ccc(Cl)cc2)CC1` (stereo not drawn) [Example 156, 1-(4-(4-chlorophenyl)-4-hydroxypiperidin-1-yl)-2-((1-(4-(trifluoromethyl)phenylsulfonyl)piperidin-2-yl)methoxy)ethanone], the values for the inhibition at 10 µM in experiment [1] and in experiment [2] were 20.9% and 70.3%, respectively.

`O=C(COCC1CCCN1S(=O)(=O)c1cc(Cl)sc1Cl)N1CCC(O)(c2cccs2)CC1` (stereo not drawn) [Example 266, 2-((1-(2,5-dichlorothiophen-3-ylsulfonyl)pyrrolidin-2-yl)methoxy)-1-(4-hydroxy-4-(thiophen-2-yl)piperidin-1-yl)ethanone]: the inhibition at 10 µM in experiment [1] was found to be 21.9%; in experiment [2] it was 78.6%.

For the compound `O=C(COCC1CCCCN1S(=O)(=O)c1ccc(C(F)(F)F)cc1)N1CCC(O)(c2cccnc2)CC1` (stereo not drawn) [Example 155, 1-(4-hydroxy-4-(pyridin-3-yl)piperidin-1-yl)-2-((1-(4-(trifluoromethyl)phenylsulfonyl)piperidin-2-yl)methoxy)ethanone], the inhibition at 10 µM in experiment [1] was found to be 30.3%; in experiment [2], 60.3%.

In the case of `O=C(COCC1CCCCN1S(=O)(=O)c1ccccc1C(F)(F)F)N1CCC(O)(c2ccc(Cl)cc2)CC1` (stereo not drawn) [Example 173, 1-(4-(4-chlorophenyl)-4-hydroxypiperidin-1-yl)-2-((1-(2-(trifluoromethyl)phenylsulfonyl)piperidin-2-yl)methoxy)ethanone], the results for the inhibition at 10 µM in experiment [1] and in experiment [2] were 103% and 104%, respectively.

Consider `Cc1cc(S(=O)(=O)N2CCCCC2COCC(=O)N2CCC(O)(c3cccnc3)CC2)c(C)cc1Cl` (stereo not drawn) [Example 157, 2-((1-(4-chloro-2,5-dimethylphenylsulfonyl)piperidin-2-yl)methoxy)-1-(4-hydroxy-4-(pyridin-3-yl)piperidin-1-yl)ethanone], for which the inhibition at 10 µM in experiment [1] came out at 77.1%; in experiment [2], 101%.

With `O=C(COCc1sccc1N(Cc1ccccc1)S(=O)(=O)c1ccc(Cl)c(Cl)c1)N1CCC(O)(Cc2ccccc2)CC1` [Example 69, N-benzyl-N-{2-[2-(4-benzyl-4-hydroxy-piperidin-1-yl)-2-oxo-ethoxymethyl]-thiophen-3-yl}-3,4-dichloro-phenylsulfonamide], the inhibition at 10 µM in experiment [1] stood at 9.45%; in experiment [2], 28.4%.

With `COc1cc(C)c(S(=O)(=O)N2CCCCC2COCC(=O)N2CCC(O)(c3cccnc3)CC2)c(C)c1` (stereo not drawn) [Example 127, 1-(4-hydroxy-4-(pyridin-3-yl)piperidin-1-yl)-2-((1-(4-methoxy-2,6-dimethylphenylsulfonyl)piperidin-2-yl)methoxy)ethanone], the inhibition at 10 µM in experiment [1] stood at 104%; in experiment [2] it was 101%.

Consider `COc1cc(C)c(S(=O)(=O)N2CCC(OCC(=O)N3CCC(O)(Cc4ccccc4)CC3)C2)c(C)c1C` (stereo not drawn) [Example 7, 1-(4-benzyl-4-hydroxy-piperidin-1-yl)-2-[1-(4-methoxy-2,3,6-trimethyl-phenylsulfonyl)-pyrrolidin-3-yloxy]-ethanone], for which the inhibition at 10 µM amounted to 99.8% in experiment [1] and 35.2% in experiment [2].

As for `O=C(COCC1CCCCN1S(=O)(=O)c1c(Cl)cccc1Cl)N1CCC(O)(c2ccc(Br)cc2)CC1` (stereo not drawn) [Example 234, 1-(4-(4-bromophenyl)-4-hydroxypiperidin-1-yl)-2-((1-(2,6-dichlorophenylsulfonyl)piperidin-2-yl)methoxy)ethanone], the inhibition at 10 µM in experiment [1] was found to be 102%; in experiment [2] it was 99.3%.

On to `COc1cc(C)c(S(=O)(=O)N(CCOCC(=O)N2CCC(O)(c3ccc(Cl)cc3)CC2)CC(C)C)c(C)c1C` [Example 209, N-(2-(2-(4-(4-chlorophenyl)-4-hydroxypiperidin-1-yl)-2-oxoethoxy)ethyl)-N-isobutyl-4-methoxy-2,3,6-trimethylphenylsulfonamide], for which the inhibition at 10 µM was 105% in experiment [1] and 100% in experiment [2].

Take `O=C(COCC1CCCCN1S(=O)(=O)c1cccc2ccccc12)N1CCC(O)(Cc2ccccc2)CC1` (stereo not drawn) [Example 64, 1-(4-benzyl-4-hydroxy-piperidin-1-yl)-2-[1-(naphthalene-1-sulfonyl)-piperidin-2-ylmethoxy]-ethanone]: the inhibition at 10 µM was determined as 69.2% in experiment [1] and 64.2% in experiment [2].

As to `COc1cc(C)c(S(=O)(=O)N2CCC(COCC(=O)N3CCC(O)(c4cccc(C(F)(F)F)c4)CC3)C2)c(C)c1` (stereo not drawn) [Example 231, 1-(4-hydroxy-4-(3-(trifluoromethyl)phenyl)piperidin-1-yl)-2-((1-(4-methoxy-2,6-dimethylphenylsulfonyl)pyrrolidin-3-yl)methoxy)ethanone], the inhibition at 10 µM was determined as 102% in experiment [1] and 98.7% in experiment [2].

As to `O=C(COC1CCCCC1N(Cc1ccccc1)S(=O)(=O)c1ccc(Cl)c(Cl)c1)N1CCC(O)(c2ccccn2)CC1` (stereo not drawn) [Example 95, N-benzyl-3,4-dichloro-N-{2-[2-(4′-hydroxy-3′,4′,5′,6′-tetrahydro-2′H-[2,4′]bipyridinyl-1′-yl)-2-oxo-ethoxy]-cyclohexyl}-phenylsulfonamide], the inhibition at 10 µM is 8.92% in experiment [1] and -0.33% in experiment [2].

Consider `COc1cc(C)c(S(=O)(=O)N(C)CCOCC(=O)N2CCC(O)(c3cccc(F)c3)CC2)c(C)c1` [Example 141, N-(2-(2-(4-(3-fluorophenyl)-4-hydroxypiperidin-1-yl)-2-oxoethoxy)ethyl)-4-methoxy-N,2,6-trimethylphenylsulfonamide], for which the inhibition at 10 µM in experiment [1] amounted to 104%; in experiment [2] it was 100%.

For `O=C(COCC1CCCN1S(=O)(=O)c1cc(Cl)sc1Cl)N1CCC(O)(c2ccc(Cl)c(C(F)(F)F)c2)CC1` (stereo not drawn) [Example 223, 1-(4-(4-chloro-3-(trifluoromethyl)phenyl)-4-hydroxypiperidin-1-yl)-2-((1-(2,5-dichlorothiophen-3-ylsulfonyl)pyrrolidin-2-yl)methoxy)ethanone], the inhibition at 10 µM was determined as 15.1% in experiment [1] and 99.5% in experiment [2].

With `O=C(COC1CCCN(S(=O)(=O)c2c(Cl)cc(Cl)cc2Cl)C1)N1CCC(O)(Cc2ccccc2)CC1` (stereo not drawn) [Example 249, 1-(4-benzyl-4-hydroxypiperidin-1-yl)-2-(1-(2,4,6-trichlorophenylsulfonyl)piperidin-3-yloxy)ethanone], the inhibition at 10 µM in experiment [1] is 70.8%; in experiment [2] it was 87.3%.

For the compound `COc1cc(C)c(S(=O)(=O)N(C)CCOCC(=O)N2CCC(O)(CCc3cccnc3)CC2)c(C)c1` [Example 140, N-(2-(2-(4-hydroxy-4-(2-(pyridin-3-yl)ethyl)piperidin-1-yl)-2-oxoethoxy)ethyl)-4-methoxy-N,2,6-trimethylphenylsulfonamide], the inhibition at 10 µM in experiment [1] worked out at 104%; in experiment [2], 101%.
